One series deals with various tumors. As to conditions: cited from earlier work.
Another series relates to colon 38 adenocarcinoma. The series is described as follows: Colon 38 adenocarcinoma in mice. Type of series: in vivo, BDF1 mice.
A further series deals with JC breast adenocarcinoma. Kind of series: JC breast adenocarcinoma in mice. It counts as in vivo, Balb/c mice. The procedure: (§1) JC is an epithelial-like cell line established in 1983 from a spontaneous primary adenocarcinoma along the milk line (Capone et al., Cancer Immuno. Immunother. 1987, 25, 93-9). It produces tumors with papillary adenocarcinoma morphology in BALB/c mice. […] At the lowest dose of 0.16 mg/kg, (+)-YW-391 (LCK: 1.5) killed 10-times more tumor cells than Dox at 8 mg/kg (LCK: 0.78). (+)-YW-391 has the potential to be a powerful new treatment for human breast cancer.

In series [1] the test system is SKOV-3 human ovarian cancer. Kind of series: SKOV-3 human ovarian cancer xenograft. It counts as in vivo, CD1 nude mice. The procedure: Ovarian cancer is one of the most difficult to treat human cancers, and very few drugs are effective. YW-391 had significant activity in SKOV-3 human ovarian cancer xenograft (FIG. 8 and Table 9). […] [table] treated animals. YW-391 and doxorubicin were administered iv., and paclitaxel was administered ip. Equivalents

In another series the test system is Lewis lung carcinoma. The series is described as follows: Lewis lung carcinoma in mice.
In another series the test system is L1210 leukemia. The series is described as follows: L1210 leukemia tumor model in mice.
The test system of the next series is various cancer cells. Conditions: various cancer cells in vitro, 1 h exposure (Ghielmini et al. 1997); cited from earlier work.
For series [2] the following is noted: one patient with liver cancer, 40 microg/m^2, one cycle (days 1-5); cited from earlier work.
For the next series, the system named is L1210 leukemia cells. Kind of series: Anticancer activity in vitro, 3H-thymidine incorporation. Type of series: cell-based, murine. Conditions: Mus musculus, 48-h proliferation assay, 3H-thymidine uptake, mean of two experiments.
For another series, the target named is HSA (Homo sapiens, UniProt P02768). Conditions: exogenously added HSA; cited from earlier work.
Sequence of HSA (P02768 25-609): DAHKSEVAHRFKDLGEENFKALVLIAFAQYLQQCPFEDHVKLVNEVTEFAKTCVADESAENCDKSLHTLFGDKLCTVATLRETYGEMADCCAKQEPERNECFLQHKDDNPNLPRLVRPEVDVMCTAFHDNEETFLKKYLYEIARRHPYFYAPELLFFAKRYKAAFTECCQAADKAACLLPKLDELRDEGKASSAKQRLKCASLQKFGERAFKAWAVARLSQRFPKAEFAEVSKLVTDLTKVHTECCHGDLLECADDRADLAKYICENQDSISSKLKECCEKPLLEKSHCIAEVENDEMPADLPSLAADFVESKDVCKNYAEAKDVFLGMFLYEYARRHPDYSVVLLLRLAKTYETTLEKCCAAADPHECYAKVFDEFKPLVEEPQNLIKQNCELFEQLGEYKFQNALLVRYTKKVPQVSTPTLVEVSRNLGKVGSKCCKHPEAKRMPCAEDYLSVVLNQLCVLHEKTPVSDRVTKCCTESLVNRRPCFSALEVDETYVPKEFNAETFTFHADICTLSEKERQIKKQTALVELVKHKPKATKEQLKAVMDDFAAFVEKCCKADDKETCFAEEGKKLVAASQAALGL
The target in the next series is T1, endogenous albumin (Homo sapiens, UniProt P02768).
T1 construct: selectivity of Dox-MH for endogenous albumin, Dox-MH was incubated with human blood plasma; from tissue; host or cells: human blood plasma
T1 sequence (P02768 25-609): as above
Conditions: human blood plasma; cited from earlier work.

For series [3], the system named is MDA-MB 435 human breast cancer. Conditions: cited from earlier work.
Series [4] deals with mouse renal RENCA, human breast cancers MDA-MB 435 and MCF-7. As to conditions: three animal tumor models; cited from earlier work.
A short description of series [5]: JC breast adenocarcinoma in mice. Type of series: in vivo, Balb/c mice. Conditions: BALB/c, mouse, in vivo, intravenous, 8 mg/kg; mice bearing JC. The procedure:
as §1

[6] abbreviates: 0.2 mg/kg i.v. on days 1, 5, 12.
The mark [7] stands for this setting: 3.0 mg/kg i.v. on days 1, 5, 12.

Like-named read-outs stand apart in the source and are kept apart here.

Protocol for L1210 leukemia cells: The antitumor activity of the compounds was evaluated in vitro against L1210 leukemia and human SKOV-3 ovarian cancer cells (Table 4). L1210 leukemia cells and SKOV-3 (2.5×10^4 cells/well) in RPMI-1640 medium supplemented with 10% FCS medium were seeded in a 96-well plate. Drugs (10 uL) at increasing concentrations were added to each well, and the total volume was adjusted to 0.1 mL/well using the same medium. For L1210 leukemia cells, the plate was incubated for 24 h at 37° C. followed by addition of 10 uL of ^3H-thymidine (20 uCi/mL). […] The plate was incubated for another 24 h. The cells were harvested, and radioactivity was counted using the Packard Matrix 96 beta counter. The results were expressed as the minimal concentration that inhibits ^3H-thymidine incorporation by 50% (IC50). Percent growth inhibition was calculated as follows: [(total cpm−experimental cpm)/total cpm]×100.

In the case of `Cc1c[nH]c2c(O)cc3c(c12)[C@H](CCl)CN3C(=O)c1cc2cc(NC(=O)Nc3ccc4[nH]c(C(=O)N5C[C@@H](CCl)c6c5cc(O)c5[nH]cc(C)c65)cc4c3)ccc2[nH]1` [Bizelesin, bizelesin], in the series with various tumors (P388, L1210, B16, UACC-62, LOX IMVI, SK-MEL-3, CAKI-1, LX-1, Lewis lung, HT-29, colon 38, pancreas 02, MCF7, MX-1 (Carter et al. 1996)), the “antitumor activity in vivo” value is given as “effective”.
In the case of `O=C(CCCCCN1C(=O)C=CC1=O)Oc1cc2c(c3ccccc13)[C@H](CCl)CN2C(=O)c1cc2cc(NC(=O)c3cc4cc(F)ccc4[nH]3)ccc2[nH]1` [(+)-YW-391], the “tumor cells killed relative to 5-FU at 70 mg/kg” value in the series with colon 38 adenocarcinoma (0.15 mg/kg (LCK 2.3) versus 5-FU 70 mg/kg (LCK 1.1)) came out at 10 times. Also, the “% Maximum weight loss” value with colon 38 adenocarcinoma (0.3 mg/kg q4d × 2 i.v.) is recorded as −25%; in [1] (0.13 mg/kg iv. on days 15, 24, 33), −3%; in the series on Lewis lung carcinoma (setting [6]), −17%. The “tumor cells killed relative to Dox at 8 mg/kg” value with JC breast adenocarcinoma (0.16 mg/kg (LCK 1.5) versus Dox 8 mg/kg (LCK 0.78)) worked out at 10 times. The same compound displayed a TGI in the series with JC breast adenocarcinoma (at MTD, dose not given) of 98%. Moreover, the “Log10 cell kill (LCK)” value with Lewis lung carcinoma (setting [6]) was determined as 0.75. This compound also registered a TGIs in the series with Lewis lung carcinoma (no dose given) of 98%. Further, the figures for the “% ILS” value in the series on L1210 leukemia (0.05 mg/kg i.v. on day 1) and in the series on L1210 leukemia (0.1 mg/kg i.v. on day 1) were 40% and 51%, respectively.
Turning to `CCN(CC)c1ccc2cc(C(=O)Nc3ccc4[nH]c(C(=O)N5C[C@@H](CCl)c6c5cc(OC(=O)Nc5ccccc5)c5[nH]cc(C)c65)cc4c3)oc2c1` [Carzelesin, carzelesin], in the series on various tumors (several colon adenocarcinomas and pediatric rhabdomyosarcomas (Houghton et al. 1995)), the “antitumor activity in vivo” value was “effective”. In addition, in the series with various cancer cells, the “average IC70 value” is 0.23 ng/mL. In series [2], the “duration of partial remission” value is 8 months and the “regression of primary liver cancer” value was 50%.
Consider `CC(=O)O[C@H]1C(=O)[C@@]2(C)[C@H]([C@H](OC(=O)c3ccccc3)[C@]3(O)C[C@H](OC(=O)[C@H](O)[C@@H](NC(=O)c4ccccc4)c4ccccc4)C(C)=C1C3(C)C)[C@]1(OC(C)=O)CO[C@@H]1C[C@@H]2O` [Paclitaxel, paclitaxel], for which the “% Maximum weight loss” value in series [1] (25 mg/kg ip. on days 15, 24, 33) was −1%.
For `COC(=O)c1c(C)[nH]c2c(OC(=O)N3CCN(C)CC3)cc3c(c12)[C@H](CBr)CN3C(=O)c1cc2cc(OC)c(OC)c(OC)c2[nH]1` [KW-2189], the “antitumor activity in vivo” value in the series with various tumors (P388, L1210, B16, colon 26, colon 38, LC-6, ST-4, ST-40, LI-7, PAN-02, MX-1 (Kobayashi et al. 1994)) is recorded as “active”.
`Cc1c[nH]c2c1[C@@]13C[C@@H]1CN(C(=O)c1cc4cc(NC(=O)c5cc6ccccc6o5)ccc4[nH]1)C3=CC2=O` [Adozelesin, adozelesin]: the “antitumor activity in vivo” value in the series on various tumors (L1210 leukemia, B16 melanoma, M5076 sarcoma, colon 38, colon CX-1, lung LX-1, pancreas 02, ovarian 2780 in mice (Li et al. 1991)) was “very active”.
With `N.N.[Cl][Pt][Cl]` [Cisplatin, cisplatin], in the series with Lewis lung carcinoma (setting [7]), the “% Maximum weight loss” value is −13%, the “% Tumor growth inhibition” value turned out to be 74% and the “Log10 cell kill (LCK)” value is listed as 0.45.
In turn, `O=C(CCCCCN1C(=O)C=CC1=O)Oc1cc2c(c3ccccc13)[C@H](CCl)CN2C(=O)c1cc2cc(NC(=O)c3cc4ccccc4o3)ccc2[nH]1` [(+)-YW-392] registered an IC50 in the series with L1210 leukemia cells of 31 nM.
On to `COc1cccc2c1C(=O)c1c(O)c3c(c(O)c1C2=O)C[C@@](O)(/C(CO)=N/NC(=O)CCCCCN1C(=O)C=CC1=O)C[C@@H]3O[C@H]1C[C@H](N)[C@H](O)[C@H](C)O1` [Dox-MH], for which the “time by which all of the Dox-MH had reacted” value on HSA and at endogenous albumin was at most 90 min each time. In addition, on HSA, the “time within which majority of the Dox-MH reacted with HSA” value is at most 5 min. Further, the body weight change result in [3] (after 24 days of drug administration) is “did not produce an overall change in body weight”. Besides, the antitumor response result in series [3] (optimal dose 3×39.3 umol/kg (3×23 mg/kg)) is “complete remissions”. The “antitumor efficacy and toxicity versus free doxorubicin” value in [4] is on record as “distinctly superior to free doxorubicin”.
With `COc1cccc2c1C(=O)c1c(O)c3c(c(O)c1C2=O)C[C@@](O)(C(=O)CO)C[C@@H]3O[C@H]1C[C@H](N)[C@H](O)[C@H](C)O1` [Doxorubicin, doxorubicin], in series [5], the MTD was 8 mg/kg. For the same compound, in the series with JC breast adenocarcinoma (8.0 mg/kg q4d × 3 i.v.), the “% Maximum weight loss” value was −25%, the “% Tumor growth inhibition” value came to 82% and the “Log10 cell kill (LCK)” value worked out at 0.78. Also, in series [1] (5 mg/kg iv. on days 15, 24, 33), the “% Maximum weight loss” value is on record as −4% and the “% Tumor growth inhibition” value is listed as 39%. Besides, the antitumor response entry in series [3] (free Dox) is “modest antitumor activity”. For the same compound, the body weight loss result in series [3] (treatment with free Dox) was “about 10%”. Further, the “% ILS” value in the series with L1210 leukemia (10.0 mg/kg i.v. on day 1) stood at 85%.

Values taken from patent US20050250835A1, “Novel tumor-selective chemotherapeutic agents” (priority 2004, published 2005).
